From patent EP3952873B1 (priority 2019, dated 2020)

Legend:
mice = format: in vivo; conditions: 100 mg/kg i.p.
Protocol: To determine locomotor effects (e.g. sedation or hyperactivity) compounds were assessed after systemic administration to mice. Mice (typically n=5-8) were administered selected compounds, e.g. JON-11 and pro-JON-11 and vehicle controls, and placed in transparent cages (L: 37 cm x W: 21 cm x H: 15 cm). Locomotor activity were measured via a camera mounted above the arena. Mice will be recorded for 45 min and data collected in 5-min intervals. Data will be stored on a computer equipped with Ethovision XT (Noldus).

recombinant CaMK2a = target: T1, recombinant CaMK2a (Rattus norvegicus, UniProt P11275); experiment: [3H]HOCPCA binding to recombinant CaMK2a expressed in HEK293T cells
T1 construct: host or cells: HEK293T
Protocol: Protein concentration was determined using the Bradford protein assay. […] The dried filters were added scintillation liquid and radioactivity measured on a Tricarb 2100 Scintillation counter (Packard).

GABAB receptor = target: T2, GABAB receptor (Rattus norvegicus, UniProt Q9Z0U4); experiment: GABAB binding assay with [3H]GABA, rat brain synaptic membranes; conditions: at 100 µM
T2 construct: from tissue; host or cells: rat brain synaptic membranes
Text: To assess affinity of JON-11 for the GABAB receptor, we employed a GABAB binding assay using rat brain synaptic membranes (Wellendorph et al., 2005). […] B) JON-11 was further assessed for functional activity using CHO cells stably expressing GABAB(1b,2) receptors (Rajalu et al., 2015).

GABAA receptors = experiment: Affinity for GABAA receptors; format: binding
[1] = format: in vitro ADME, mouse; conditions: during the metabolic stability study
Protocol: Metabolic stability analysis was performed on a Bruker Avance Ultra High Performance Liquid Chromatography (UHPLC) (Bruker Daltonik, Bremen, Germany) equipped with a CTC-PAL-xt autosampler with cooled sample compartments (10 °C) and a column oven held at 40 °C. The UHPLC eluate was directed to a Bruker Evoq Elite triple quad-ropole MS equipped with a heated electrospray ionization source operated in positive ionization mode. Separation of 15 µL sample was obtained using a Phenomenex (Phenomenex, Torrance, CA, USA) Kinetex XB-C18 column (50 mm × 2.1 mm i.d., 1.7 µm particle size) equipped with a guard column. The analytes were separated using a solvent system consisting of water/acetonitrile (95:5, v/v) (eluent A) and water/acetonitrile (5:95, v/v) (eluent B); both acidified with 0.1% formic acid. The eluent flow rate was maintained at 0.4 mL/min with the following gradient elution profile: 0 min: 0% B; 5 min: 100% B; 6 min: 100% B, followed by three min equilibration at 0% B. Two ion transitions were monitored for all analytes and internal standard.
The mouse liver microsome assay was performed by transferring 25 µL of a 20 µM solution of the test compound (0.5% DMSO), dissolved in potassium phosphate monobasic buffer (pH 7.4) containing 3 mM MgCl2, to 9 wells in a microtiter plate. To each well, […] of a 0.5 mg/mL mouse liver (Sigma Aldrich) in buffer was added, and the microtiter plate were pre-incubated for 5 min at 37 °C in a plate shaker at 600 rpm. After pre-incubation, 50 µL 37 °C NADPH regenerating system, consisting of 2 mM NADP+, 10mM glucose-6-phosphate, and 2 U/mL glucose-6-phosphate dehydrogenase dissolved in buffer, was added to start the assay. In triplicates, immediately after adding the NADPH solution, 75 µL was transferred to an Eppendorf tube, containing […] ice-cold acetonitrile with 400 ng/mL internal standard (7). Similarly, samples were prepared after 30 min and 60 min incubation at 37 °C. The samples were vortexed for 30 seconds and centrifuged at 16,000 × g for 10 minutes before analyzing the supernatant. The individual analyte responses were normalized to the internal standard. Diazepam was used as positive control.
The mouse […] assay was performed by transferring 75 µL of a 10 µM solution of the test compound (0.5% DMSO), dissolved in PBS buffer (pH 7.4), to 9 wells in a microtiter plate. To each well, 75 µL mouse plasma, harvested from in-house mice into K2-EDTA tubes and centrifuged at 1,600 × g, was added. […]
The metabolic stabilities of JON-11 and the prodrugs 1a, 8-12, 19 and 20 were determined in vitro in rat plasma and rat liver microsomes. […] The corresponding loss of prodrug compounds and formation of parent drug JON-11 was determined by UHPLC-MS.

T1 sequence (P11275 whole entry): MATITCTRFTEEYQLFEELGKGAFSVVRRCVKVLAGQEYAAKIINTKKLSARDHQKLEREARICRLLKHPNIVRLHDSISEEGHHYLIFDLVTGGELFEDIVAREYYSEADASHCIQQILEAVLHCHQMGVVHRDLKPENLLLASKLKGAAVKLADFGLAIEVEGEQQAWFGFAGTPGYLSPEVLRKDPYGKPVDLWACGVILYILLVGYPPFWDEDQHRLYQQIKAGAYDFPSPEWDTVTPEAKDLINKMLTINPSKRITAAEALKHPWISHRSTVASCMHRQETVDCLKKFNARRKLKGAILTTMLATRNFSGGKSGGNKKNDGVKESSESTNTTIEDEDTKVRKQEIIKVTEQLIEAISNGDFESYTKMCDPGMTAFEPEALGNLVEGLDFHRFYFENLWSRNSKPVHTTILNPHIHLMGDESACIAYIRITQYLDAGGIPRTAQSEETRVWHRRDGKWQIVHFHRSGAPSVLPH
T2 sequence (Q9Z0U4 20-960): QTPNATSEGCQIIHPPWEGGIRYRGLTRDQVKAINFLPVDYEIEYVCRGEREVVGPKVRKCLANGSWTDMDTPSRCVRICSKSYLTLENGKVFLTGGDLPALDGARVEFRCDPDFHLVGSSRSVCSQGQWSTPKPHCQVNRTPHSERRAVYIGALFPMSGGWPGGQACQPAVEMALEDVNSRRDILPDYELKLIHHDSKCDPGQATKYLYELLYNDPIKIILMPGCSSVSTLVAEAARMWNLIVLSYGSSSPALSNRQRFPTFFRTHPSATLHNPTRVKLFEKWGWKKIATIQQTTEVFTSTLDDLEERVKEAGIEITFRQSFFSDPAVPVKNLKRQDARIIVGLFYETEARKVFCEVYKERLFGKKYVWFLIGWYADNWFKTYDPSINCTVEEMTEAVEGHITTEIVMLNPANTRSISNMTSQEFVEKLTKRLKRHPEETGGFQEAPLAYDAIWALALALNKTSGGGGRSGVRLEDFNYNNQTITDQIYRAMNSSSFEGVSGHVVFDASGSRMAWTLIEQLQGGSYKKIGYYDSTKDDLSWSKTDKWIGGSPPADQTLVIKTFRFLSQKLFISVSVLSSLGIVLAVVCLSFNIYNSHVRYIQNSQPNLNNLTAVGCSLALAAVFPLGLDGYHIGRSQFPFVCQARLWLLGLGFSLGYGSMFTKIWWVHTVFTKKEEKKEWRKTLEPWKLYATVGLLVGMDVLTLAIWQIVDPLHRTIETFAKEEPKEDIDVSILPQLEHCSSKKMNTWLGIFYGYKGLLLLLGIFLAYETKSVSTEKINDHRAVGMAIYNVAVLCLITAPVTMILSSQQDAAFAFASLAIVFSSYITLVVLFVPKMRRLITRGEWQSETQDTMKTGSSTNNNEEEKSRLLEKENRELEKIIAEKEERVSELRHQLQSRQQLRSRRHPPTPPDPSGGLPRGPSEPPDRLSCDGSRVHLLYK
T2 sequence (O88871 41-940 partner): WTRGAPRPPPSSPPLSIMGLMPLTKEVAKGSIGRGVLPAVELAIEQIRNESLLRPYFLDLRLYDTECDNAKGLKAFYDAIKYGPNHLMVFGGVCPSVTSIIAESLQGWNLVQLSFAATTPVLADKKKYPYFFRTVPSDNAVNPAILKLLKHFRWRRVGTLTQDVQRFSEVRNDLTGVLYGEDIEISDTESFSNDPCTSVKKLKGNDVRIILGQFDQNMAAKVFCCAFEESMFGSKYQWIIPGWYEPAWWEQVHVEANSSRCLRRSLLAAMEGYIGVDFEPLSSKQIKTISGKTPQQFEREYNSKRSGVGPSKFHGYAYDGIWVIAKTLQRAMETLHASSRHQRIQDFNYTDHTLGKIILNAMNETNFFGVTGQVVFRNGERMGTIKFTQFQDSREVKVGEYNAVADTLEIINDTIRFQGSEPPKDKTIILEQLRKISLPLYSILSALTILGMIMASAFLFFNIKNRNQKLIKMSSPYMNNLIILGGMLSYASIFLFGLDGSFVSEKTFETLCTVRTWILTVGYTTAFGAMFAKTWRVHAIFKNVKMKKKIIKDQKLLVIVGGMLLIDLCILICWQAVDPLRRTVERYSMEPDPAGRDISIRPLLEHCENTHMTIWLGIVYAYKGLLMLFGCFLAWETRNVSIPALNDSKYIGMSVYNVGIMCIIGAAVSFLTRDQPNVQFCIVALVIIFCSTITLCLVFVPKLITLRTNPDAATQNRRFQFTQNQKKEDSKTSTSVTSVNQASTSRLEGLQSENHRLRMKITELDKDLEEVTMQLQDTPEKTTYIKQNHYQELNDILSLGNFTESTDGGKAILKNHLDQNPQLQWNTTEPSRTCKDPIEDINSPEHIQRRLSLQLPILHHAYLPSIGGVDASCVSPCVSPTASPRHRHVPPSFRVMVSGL

Structure (SMILES): O=C(O)Cc1cn2nc(-c3ccc(Cl)cc3)ccc2n1 [JON-11, 2-(6-(4-Chlorophenyl)imidazo[1,2-b]pyridazin-2-yl)acetic acid]
- locomotor activity (mice): does not affect locomotor activity
- Ki (recombinant CaMK2a; 5 nM [3H]HOCPCA, whole cell lysates of CaMK2a-transfected HEK293T cells): 3.5 µM
- higher affinity compared to GHB (recombinant CaMK2a; ratio of Ki values, [3H]HOCPCA binding): 14 x
- ability to compete with [3H]GABA (GABAB receptor): no ability to compete
- affinity for GABAA receptors (GABAA receptors): weak affinity
- Chemical or enzymatic degradation [1]: not observed
